Results taken from PubChem BioAssay (NCI).
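Results reflect a 48-hour exposure of cells in 96-well plates to compound at five concentrations. TGI: total growth inhibition.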

Experiments:
Assay in all cases: NCI tumour cell line growth inhibition, 48 h
[1] = system: HCT-116 colon
[2] = system: MOLT-4 leukemia
[3] = system: HCC-2998 colon
[4] = system: NCI-H460 lung
[5] = system: MDA-MB-231 breast
[6] = system: MCF7 breast
[7] = system: ACHN renal
[8] = system: NCI-H23 lung
[9] = system: HS 578T breast
[10] = system: EKVX NSCLC
[11] = system: OVCAR-3 ovarian
[12] = system: HOP-92 NSCLC
[13] = system: SF-268 CNS
[14] = system: OVCAR-4 ovarian
[15] = system: A549 NSCLC
[16] = system: SK-MEL-5 melanoma
[17] = system: UACC-62 melanoma
[18] = system: HT29 colon
[19] = system: DU-145 prostate
[20] = system: SNB-75 CNS
[21] = system: SK-OV-3 ovarian
[22] = system: 786-0 renal
[23] = system: M14 melanoma
[24] = system: NCI/ADR-RES ovarian
[25] = system: OVCAR-5 ovarian
[26] = system: CAKI-1 renal
[27] = system: TK-10 renal
[28] = system: HOP-62 NSCLC
[29] = system: OVCAR-8 ovarian
[30] = system: MDA-MB-435
[31] = system: U251 CNS
[32] = system: SK-MEL-2 melanoma
[33] = system: SNB-19 CNS
[34] = system: BT-549 breast
[35] = system: HL-60(TB) leukemia
[36] = system: IGROV1 ovarian
[37] = system: COLO 205 colon
[38] = system: NCI-H522 lung
[39] = system: PC-3 prostate
[40] = system: SN12C renal
[41] = system: UO-31 renal
[42] = system: SF-295 CNS
[43] = system: LOX IMVI melanoma
[44] = system: SW-620 colon
[45] = system: SF-539 CNS
[46] = system: KM12 colon
[47] = system: UACC-257 melanoma
[48] = system: HCT-15 colon
[49] = system: SK-MEL-28 melanoma
[50] = system: NCI-H226 lung
[51] = system: CCRF-CEM leukemia

Measured: TGI

COC(=O)C(=O)C(C(=O)C(=O)Nc1ccc(Cl)cc1Cl)c1nc2ccc(Cl)cc2[nH]c1=O (stereo unspecified)
> 100 µM: [1] | [2] | [3] | [4] | [5] | [6] | [7] | [8] | [9] | [10] | [11] | [12] | [13] | [14] | [15] | [16] | [17] | [18] | [19] | [20] | [21] | [22] | [23] | [24] | [25] | [26] | [27] | [28] | [29] | [30] | [31] | [32] | [33] | [34] | [35] | [36] | [37] | [38] | [39] | [40] | [41] | [42] | [43] | [44] | [45] | [46] | [47] | [48] | [49] | [50] | [51]
